Test results reported in US10168342B2, “Lipid probes and uses thereof” (THE SCRIPPS RESEARCH INSTITUTE, priority 2015, dated 2019).

Tests used:
[1] = test system: membrane and soluble proteins of HEK293T cells; test: Gel-based profiling of lipid probe labeling in HEK293T cells; type: cell-based, human; conditions: probe 20 μM, 30 min, UV
Protocol: For gel-based analysis, after sonicating the membrane pellets in cold DPBS, protein concentrations of each fraction were determined using the BCA protein assay (Bio-Rad) and a microplate reader (Tecan, Infinite F500).
Proteomes were diluted to 1.0 mg/mL (total protein concentration) and 50 μL of each proteome was transferred to separate wells in a 96-well plate.
In some instances, within the arachidonoyl subset of probes, fatty acid- and fatty acid amide-based probes (AA-DA and AEA-DA, respectively) were synthesized and their potential were evaluated to bind and covalently modify (under UV-light exposure) proteins in human cells by gel-based profiling. For example, HEK293T cells were treated with probe (AA-DA or AEA-DA; 20 μM, 30 min), irradiated with UV light (10 min, 4° C.), lysed and the cell proteomes fractionated into membrane and soluble components by centrifugation prior to conjugation to a fluorescent reporter tag (Rh—N3) using CuAAC (FIG. 4A). […] In some instances, this was a consequence of rapid sequestration of this probe into membranes through its metabolic incorporation into phospho/neutral-lipids or into lipidated proteins. […] In some instances, the labeling profile of the AEA-DA probe reflected a limited capacity of the cell to metabolize this amidated probe, which undergoes enzyme-mediated hydrolysis prior to incorporation into other lipids or proteins.

[2] = molecular target: T1, A-DA lipid probe targets in A549 cells (Homo sapiens, UniProt Q9UH99); test: In situ competitive SILAC profiling with A-DA probe in (PMA-stimulated) A549 cells; conditions: protein SUN2 (Q9UH99), A549 cells
T1 sequence (Q9UH99 1-717): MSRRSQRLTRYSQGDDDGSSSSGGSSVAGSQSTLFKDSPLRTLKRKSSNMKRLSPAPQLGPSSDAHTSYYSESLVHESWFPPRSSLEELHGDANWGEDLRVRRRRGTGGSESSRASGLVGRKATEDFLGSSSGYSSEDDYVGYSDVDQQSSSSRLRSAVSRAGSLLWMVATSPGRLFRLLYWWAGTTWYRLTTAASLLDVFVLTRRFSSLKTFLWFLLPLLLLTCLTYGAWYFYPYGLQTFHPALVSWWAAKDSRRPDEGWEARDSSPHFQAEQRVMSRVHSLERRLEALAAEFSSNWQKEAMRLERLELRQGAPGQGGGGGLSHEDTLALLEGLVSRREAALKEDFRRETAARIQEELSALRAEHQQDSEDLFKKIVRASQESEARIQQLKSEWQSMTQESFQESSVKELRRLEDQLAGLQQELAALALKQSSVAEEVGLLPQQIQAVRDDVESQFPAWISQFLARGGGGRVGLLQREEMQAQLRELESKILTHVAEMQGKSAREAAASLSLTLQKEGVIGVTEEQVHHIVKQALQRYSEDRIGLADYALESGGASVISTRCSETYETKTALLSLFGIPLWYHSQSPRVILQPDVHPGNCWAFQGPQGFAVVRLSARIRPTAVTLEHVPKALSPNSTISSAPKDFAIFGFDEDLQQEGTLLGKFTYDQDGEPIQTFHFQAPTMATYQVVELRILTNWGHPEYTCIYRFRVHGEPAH

[3] = molecular target: A-DA lipid probe targets in A549 cells (Homo sapiens, UniProt P48449); test: as above; conditions: A549 cells, A-DA 5 μM, drug 5 μM; only two off-targets (TMEM97 and EBP)
Sequence of A-DA lipid probe targets in A549 cells (Homo sapiens, UniProt P48449) (P48449 whole entry): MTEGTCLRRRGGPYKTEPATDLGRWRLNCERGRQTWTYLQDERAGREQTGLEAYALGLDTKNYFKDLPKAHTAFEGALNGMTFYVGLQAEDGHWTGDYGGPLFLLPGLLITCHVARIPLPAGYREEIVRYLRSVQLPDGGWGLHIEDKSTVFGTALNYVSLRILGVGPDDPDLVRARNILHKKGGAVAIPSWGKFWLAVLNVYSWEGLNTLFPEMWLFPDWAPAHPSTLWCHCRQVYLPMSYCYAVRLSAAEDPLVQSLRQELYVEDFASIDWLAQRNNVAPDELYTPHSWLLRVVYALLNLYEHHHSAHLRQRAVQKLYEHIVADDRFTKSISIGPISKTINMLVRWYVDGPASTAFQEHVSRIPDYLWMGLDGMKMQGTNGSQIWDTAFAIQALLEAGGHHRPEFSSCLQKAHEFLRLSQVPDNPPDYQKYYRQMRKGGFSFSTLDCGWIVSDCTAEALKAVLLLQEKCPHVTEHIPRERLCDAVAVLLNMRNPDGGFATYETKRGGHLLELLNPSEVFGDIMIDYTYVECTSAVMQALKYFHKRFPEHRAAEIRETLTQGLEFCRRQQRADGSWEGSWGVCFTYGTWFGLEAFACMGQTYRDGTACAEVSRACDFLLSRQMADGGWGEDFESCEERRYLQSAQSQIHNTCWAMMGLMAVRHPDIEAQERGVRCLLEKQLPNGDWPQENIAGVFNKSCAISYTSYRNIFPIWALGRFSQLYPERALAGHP

SMILES | protein labeling profile (membrane vs soluble) [1] | SILAC ratio, A-DA competition ([2]; competitor 5.0 μM) | SILAC ratio, A-DA competition ([2]; competitor 50 μM) | competition of probe labeling of LSS [3]
C#CCCCC1(CC/C=C\C/C=C\C/C=C\CCCC(=O)NCCO)N=N1 [AEA-DA, (5Z,8Z,11Z)-N-(2-hydroxyethyl)-14-(3-(pent-4-yn-1-yl)-3H-diazirin-3-yl)tetradeca-5,8,11-trienamide] | substantial labeling of both soluble and membrane proteins | – | – | –
C=CCN(C)CCCCCCOc1ccc(C(=O)c2ccc(Br)cc2)c(F)c1 [Ro 48-8071, reference compound] | – | 1.3 | 1.3 | fully competed
